Here are results for 43 molecules from patent US20260132127A1, “NOVEL SPIRO COMPOUND” (MITSUBISHI TANABE PHARMA CORPORATION, priority 2021, published 2026).

SMILES strings stand for the structures.

The target in the test is T1, human TRH-DE (Homo sapiens, UniProt Q9UKU6).
T1 construct: expressed in transfected cells; host or cells: Expi 293 cells (transient expression), membrane fraction
T1 sequence (Q9UKU6 1-1069): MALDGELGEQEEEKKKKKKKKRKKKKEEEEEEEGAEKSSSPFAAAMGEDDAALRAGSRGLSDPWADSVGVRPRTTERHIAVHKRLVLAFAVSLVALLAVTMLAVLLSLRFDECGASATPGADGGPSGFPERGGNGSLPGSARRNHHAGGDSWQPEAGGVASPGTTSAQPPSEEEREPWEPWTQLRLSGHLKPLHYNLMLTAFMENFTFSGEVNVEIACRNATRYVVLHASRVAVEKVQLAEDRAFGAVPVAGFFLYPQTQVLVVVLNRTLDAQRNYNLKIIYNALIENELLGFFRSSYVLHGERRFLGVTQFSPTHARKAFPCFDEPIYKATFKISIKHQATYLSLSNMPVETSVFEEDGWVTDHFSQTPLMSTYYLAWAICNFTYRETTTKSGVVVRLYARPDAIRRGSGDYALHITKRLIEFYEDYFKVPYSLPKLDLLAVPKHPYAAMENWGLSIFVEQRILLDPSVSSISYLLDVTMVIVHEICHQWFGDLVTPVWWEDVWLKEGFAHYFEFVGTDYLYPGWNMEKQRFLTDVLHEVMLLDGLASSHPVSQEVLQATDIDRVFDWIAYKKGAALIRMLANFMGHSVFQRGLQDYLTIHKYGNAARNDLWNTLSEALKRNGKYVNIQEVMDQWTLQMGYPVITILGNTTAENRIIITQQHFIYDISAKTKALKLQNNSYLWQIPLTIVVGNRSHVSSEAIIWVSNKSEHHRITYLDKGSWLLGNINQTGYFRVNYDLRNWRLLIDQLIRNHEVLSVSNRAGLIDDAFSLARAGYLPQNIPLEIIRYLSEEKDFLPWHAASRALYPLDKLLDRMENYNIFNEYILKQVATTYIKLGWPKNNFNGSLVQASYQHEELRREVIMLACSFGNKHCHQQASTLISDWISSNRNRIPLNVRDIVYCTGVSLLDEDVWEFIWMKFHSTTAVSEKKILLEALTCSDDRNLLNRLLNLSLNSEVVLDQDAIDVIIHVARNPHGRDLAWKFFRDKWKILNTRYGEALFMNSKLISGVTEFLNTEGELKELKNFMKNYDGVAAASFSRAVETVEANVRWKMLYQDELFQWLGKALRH
The test can be described thus: TRH-DE inhibition test (RapidFire MS measurement of product Cyclo (His-Pro)). Format: biochemical. Conditions: membrane fraction of Expi 293 cells expressing human TRH-DE; 10 μM TRH substrate; room temperature, 2 hours; 16-point concentration test. As to the method: The compounds described in “1. […] The enzyme inhibitory activity of each of the compounds was evaluated by measuring the amount of the product Cyclo (His-Pro) of the enzyme reaction using a RapidFire RF 365 HTMS system (manufactured by Agilent Technologies, Inc.) connected to a triple quadrupole mass spectrometer (API 4000, manufactured by SCIEX). A membrane fraction prepared from Expi 293 cells transiently expressing human TRH-DE was used as an enzyme. The membrane fraction was suspended in 4 μg/ml of a reaction buffer (50 mM sodium phosphate (pH 7.4), 25 mM NaCl, 0.01% Triton […], and 200 μM bacitracin) and mixed with the test compound at each concentration. 10 μM […]), which was a substrate, was added, and the mixture was reacted at room temperature for 2 hours. The reaction was stopped in the same amount of a solution of acetonitrile:methanol (1:1) containing 1 μM of the stable isotope Cyclo ([…]) as an internal standard, and the supernatant was collected after centrifugation. In the RapidFire RF 365 HTMS system, a portion of the supernatant was aspirated, loaded onto a Graphic Carbon column (manufactured by Agilent Technologies, Inc.) with a buffer A (water, 0.09% formic acid, 0.01% trifluoroacetic acid) and washed with ultrapure water. Next, washing was performed with acetonitrile. The contents in the column were eluted with a buffer B (80% acetonitrile, 0.09% formic acid, 0.01% trifluoroacetic acid) and injected into a mass spectrometer for analysis. […] The ESI voltage was set to 5,500 V and the temperature was set to 650° C. For the calculation of the inhibition rate, a Ratio value corrected by dividing the product amount by the internal standard amount was used. The inhibition rate (%) was calculated by % Inhibition={1-(Ratio value of sample-Ratio value of blank)/(Ratio value of control-Ratio value of blank)}×100. The IC50 value was calculated from the concentration reactivity test at 16 points.
`C[C@@H]1COc2cc(N3CCC(C(F)(F)F)C3)ncc2C(=O)N1C1CC2(C1)CN(S(=O)(=O)c1ccccc1F)C2` (mixture of isomers) [Example 145] had an IC50 of 1 nM. The molecule `C[C@@H]1COc2cc(N3CCCC3C(F)(F)F)ncc2C(=O)N1C1CC2(C1)CN(S(=O)(=O)c1ccccc1F)C2` (mixture of isomers) [Example 146] displayed an IC50 of 1 nM. Regarding `CC1CCCN(c2cc3c(cn2)C(=O)N(C2CC4(C2)CN(S(=O)(=O)c2ccccc2F)C4)[C@H](C)CO3)C1` (mixture of isomers) [Example 152], the IC50 was 1 nM. In the case of `C[C@@H]1COc2nc(N3CCOC(C(F)(F)F)C3)ncc2C(=O)N1C1CC2(C1)CN(S(=O)(=O)c1ccccc1F)C2` (mixture of isomers) [Example 385] it was 13 nM; in that of `CC1CN(c2ncc3c(n2)OC[C@@H](C)N(C2CC4(C2)CN(S(=O)(=O)c2ccccc2F)C4)C3=O)CCO1` (mixture of isomers) [Example 386], 13 nM. The molecule `C[C@@H]1COc2nc(N3CCC4(CCOC4)C3)ncc2C(=O)N1C1CC2(C1)CN(S(=O)(=O)c1ccccc1F)C2` (mixture of isomers) [Example 405] registered an IC50 of 3 nM. As for `C[C@@H]1COc2nc(N3CCCC34CCOC4)ncc2C(=O)N1C1CC2(C1)CN(S(=O)(=O)c1ccccc1F)C2` (mixture of isomers) [Example 406], 6 nM corresponded to half-maximal inhibition (IC50). `CC1CN(C2CC3(C2)CN(S(=O)(=O)c2ccccc2F)C3)C(=O)c2ncccc2O1` (racemic) [Example 2] registered a 50% inhibitory concentration (IC50) of 1010 nM.

For the molecule `CC1COc2ccc(F)nc2C(=O)N1C1CC2(C1)CN(S(=O)(=O)c1ccccc1F)C2` (racemic) [Example 9], the IC50 came to 14 nM.

`CC1COc2cc(F)cnc2C(=O)N1C1CC2(C1)CN(S(=O)(=O)c1ccccc1F)C2` (racemic) [Example 10]: the IC50 amounted to 12 nM. Regarding `Cc1ccc2c(n1)C(=O)N(C1CC3(C1)CN(S(=O)(=O)c1ccccc1F)C3)C(C)CO2` (racemic) [Example 14], half-maximal inhibition (IC50) was put at 24 nM. In turn, `Cc1cnc2c(c1)OCC(C)N(C1CC3(C1)CN(S(=O)(=O)c1ccccc1F)C3)C2=O` (racemic) [Example 15] returned an IC50 of 7 nM. As for `Cc1ccnc2c1OCC(C)N(C1CC3(C1)CN(S(=O)(=O)c1ccccc1F)C3)C2=O` (racemic) [Example 16], half-maximal inhibition (IC50) was put at 20 nM. On to `CC1COc2ccnc(F)c2C(=O)N1C1CC2(C1)CN(S(=O)(=O)c1ccccc1F)C2` (racemic) [Example 20], for which the concentration for half-maximal inhibition (IC50) was 17 nM. `CC1COc2c(F)cncc2C(=O)N1C1CC2(C1)CN(S(=O)(=O)c1ccccc1F)C2` (racemic) [Example 21] returned an IC50 of 16 nM. In the case of `CC1COc2ccnc(C(F)(F)F)c2C(=O)N1C1CC2(C1)CN(S(=O)(=O)c1ccccc1F)C2` (racemic) [Example 23], the IC50 came to 68 nM. Molecule `CC1COc2nccc(F)c2C(=O)N1C1CC2(C1)CN(S(=O)(=O)c1ccccc1F)C2` (racemic) [Example 25] had an IC50 of 54 nM. On to `CC1COc2ncc(F)cc2C(=O)N1C1CC2(C1)CN(S(=O)(=O)c1ccccc1F)C2` (racemic) [Example 26], for which the IC50 came out at 33 nM. With `CC1COc2nc(F)ccc2C(=O)N1C1CC2(C1)CN(S(=O)(=O)c1ccccc1F)C2` (racemic) [Example 28], half-maximal inhibition (IC50) was put at 23 nM.

`Cc1ccnc2c1C(=O)N(C1CC3(C1)CN(S(=O)(=O)c1ccccc1F)C3)C(C)CO2` (racemic) [Example 29] returned an IC50 of 50 nM. The molecule `Cc1cnc2c(c1)C(=O)N(C1CC3(C1)CN(S(=O)(=O)c1ccccc1F)C3)C(C)CO2` (racemic) [Example 30] showed an IC50 of 15 nM. As for `Cc1ccc2c(n1)OCC(C)N(C1CC3(C1)CN(S(=O)(=O)c1ccccc1F)C3)C2=O` (racemic) [Example 31], the figure is 9 nM. Turning to `CC1c2ccccc2CCC(=O)N1C1CC2(C1)CN(S(=O)(=O)c1ccccc1F)C2` (racemic) [Example 45, 2-[2-(2-fluorophenyl)sulfonyl-2-azaspiro[3,3]heptan-6-yl]-1-methyl-4,5-dihydro-1H-2-benzazepin-3-one], the IC50 stood at 214 nM. Molecule `CC1c2ccccc2OCC(=O)N1C1CC2(C1)CN(S(=O)(=O)c1ccccc1F)C2` (racemic) [Example 46] showed an IC50 of 129 nM. Consider `CC1c2ccccc2NCC(=O)N1C1CC2(C1)CN(S(=O)(=O)c1ccccc1F)C2` (racemic) [Example 47], for which the IC50 was 544 nM. Turning to `CC1COc2cccnc2C(=O)N1C1CC2(C1)CN(S(=O)(=O)c1ccccc1F)C2` (racemic) [Example 49], the IC50 amounted to 6 nM. The molecule `CCC1COc2cccnc2C(=O)N1C1CC2(C1)CN(S(=O)(=O)c1ccccc1F)C2` (racemic) [Example 50] had an IC50 of 19 nM. For the molecule `CC1COc2ccncc2C(=O)N1C1CC2(C1)CN(S(=O)(=O)c1ccccc1F)C2` (racemic) [Example 51], the IC50 came out at 8 nM.

In turn, `CCC1COc2ccncc2C(=O)N1C1CC2(C1)CN(S(=O)(=O)c1ccccc1F)C2` (racemic) [Example 52] registered an IC50 of 22 nM. `CC1COc2cnccc2C(=O)N1C1CC2(C1)CN(S(=O)(=O)c1ccccc1F)C2` (racemic) [Example 54] came in with a concentration for half-maximal inhibition (IC50) of 14 nM.

With `CCC1COc2ncccc2C(=O)N1C1CC2(C1)CN(S(=O)(=O)c1ccccc1F)C2` (racemic) [Example 59], half-maximal inhibition (IC50) was put at 33 nM.

In turn, `CC1COc2ncccc2C(=O)N1C1CC2(C1)CN(S(=O)(=O)c1ccccc1F)C2` (racemic) [Example 63] showed an IC50 of 22 nM. Turning to `CC1COc2ccsc2C(=O)N1C1CC2(C1)CN(S(=O)(=O)c1ccccc1F)C2` (racemic) [Example 64], the IC50 worked out at 10 nM.

On to `CC1Cc2cccnc2C(=O)N1C1CC2(C1)CN(S(=O)(=O)c1ccccc1F)C2` (racemic) [Example 65], for which 27 nM corresponded to half-maximal inhibition (IC50). `CC1Cc2ncccc2C(=O)N1C1CC2(C1)CN(S(=O)(=O)c1ccccc1F)C2` (racemic) [Example 66] registered a half-inhibitory concentration (IC50) of 31 nM. In the case of `CC1Cc2nc(C(F)(F)F)ccc2C(=O)N1C1CC2(C1)CN(S(=O)(=O)c1ccccc1F)C2` (racemic) [Example 67], the IC50 came to 77 nM. With `CC1Cc2ccccc2OC(=O)N1C1CC2(C1)CN(S(=O)(=O)c1ccccc1F)C2` (racemic) [Example 71], inhibition was half-maximal at 126 nM (IC50). `CC1COc2ncccc2C(=O)N1C1CC2(C1)CN(S(=O)(=O)c1cccc(F)c1)C2` (racemic) [Example 72]: half-maximal inhibition (IC50) required 841 nM. For `CC1COc2ncccc2C(=O)N1C1CC2(C1)CN(S(=O)(=O)c1ccccc1Cl)C2` (racemic) [Example 73], the IC50 is 92 nM. `COc1cccc(S(=O)(=O)N2CC3(CC(N4C(=O)c5cccnc5OCC4C)C3)C2)c1` (racemic) [Example 74] came in with an IC50 of 918 nM. As for `COc1ccc(S(=O)(=O)N2CC3(CC(N4C(=O)c5cccnc5OCC4C)C3)C2)cc1` (racemic) [Example 75], inhibition was half-maximal at 120 nM (IC50).

Turning to `Cc1ccccc1S(=O)(=O)N1CC2(CC(N3C(=O)c4cccnc4OCC3C)C2)C1` (racemic) [Example 76], the midpoint of inhibition, the IC50, lay at 566 nM. `Cc1cccc(S(=O)(=O)N2CC3(CC(N4C(=O)c5cccnc5OCC4C)C3)C2)c1` (racemic) [Example 77]: the IC50 turned out to be 324 nM.

Usually IC50 stands for the midpoint of a concentration-inhibition curve. Low values mean inhibition by little substance, high ones a need for much substance.
